Assay results taken from ChEMBL document CHEMBL3352501, “SAR analysis of new anti-TB drugs currently in pre-clinical and clinical development” (Eur J Med Chem, 2014).
≈ marks a conversion by molar mass, not a printed value.

How the values were obtained:
[1] = system: Mycobacterium tuberculosis; assay: Antitubercular activity against drug-resistant Mycobacterium tuberculosis clinical isolates assessed as growth inhibition; format: functional
[2] = system: Mycobacterium tuberculosis; assay: Antitubercular activity against multidrug-resistant Mycobacterium tuberculosis clinical isolates assessed as growth inhibition; format: functional

Structure (SMILES)	MIC [1] [µg/mL]	MIC90 [2] [nM]
COc1ncccc1Nc1cc2nc3ccccc3n(-c3ccc(OC(F)(F)F)cc3)c-2c/c1=N\C1CCC(OC)CC1 (stereo not given)	0.027 (≈ 0.0458 µM)	–
COc1nc2ccc(Br)cc2cc1[C@@H](c1ccccc1)[C@@](O)(CCN(C)C)c1cccc2ccccc12 [BEDAQUILINE]	0.002 (≈ 0.0036 µM)	–
CC(C)/N=c1\cc2n(-c3ccc(Cl)cc3)c3ccccc3nc-2cc1Nc1ccc(Cl)cc1 [CLOFAZIMINE]	0.108 (≈ 0.228 µM)	–
CC(C)=CCC/C(C)=C/CNCCNC1C2CC3CC(C2)CC1C3 (stereo not given) [SQ109]	0.2 (≈ 0.605 µM)	–
CCc1nc2ccc(Cl)cn2c1C(=O)NCc1ccc(N2CCC(c3ccc(OC(F)(F)F)cc3)CC2)cc1 [TELACEBEC]	–	< 0.43
